system: NO production in BV-2 cells [NO 생성; BV-2 세포]; assay: Nitric oxide (NO) quantification (nitrite, Griess reaction) in LPS-activated BV-2 cells; type: cell-based; conditions: 20 μM, LPS 0.2 ㎍/mL, 24 h co-treatment, nitrite by Griess at 540 nm, 1440 min

Row | SMILES | NO (% of LPS)
1 | CSc1nc(N[C@H](C)c2ccccc2)c2cnn(C(C)(C)C)c2n1 [화합물 17g, (R)-1-t-뷰틸-4-(1-페닐에틸)아미노-6-(메틸티오)피라졸로[3,4-d]피리미딘] | 42±18 % of LPS
2 | CC(Nc1nc([S+](C)[O-])nc2c1cnn2Cc1ccccc1)c1ccccc1 (stereo not shown) [화합물 22h, 1-벤질-6-(메틸설파이닐)-N-(1-페닐에틸)-1H-피라졸로[3,4-d]피리미딘-4-아민] | 59±1.4 % of LPS
3 | CC(Nc1nc([S+](C)[O-])nc2c1cnn2Cc1ccccc1)c1ccccc1 (stereo not shown) [화합물 22i, 1-벤질-6-(메틸설파이닐)-N-(1-페닐에틸)-1H-피라졸로[3,4-d]피리미딘-4-아민] | 81±7.5 % of LPS
4 | CC(Nc1nc([S+](C)[O-])nc2c1cnn2Cc1ccccc1)c1ccccc1 (stereo not shown) [화합물 22j, 1-벤질-6-(메틸설파이닐)-N-(1-페닐에틸)-1H-피라졸로[3,4-d]피리미딘-4-아민] | 70±3.9 % of LPS

same assay, conditions: Mus musculus, BV-2, 24 h, 20 μM, LPS 0.2 ㎍/mL, 24 h co-treatment, nitrite by Griess at 540 nm

Row | SMILES | activity at 20 µM
5 | COc1ccc(CNc2nc(SC)nc3c2cnn3C(C)(C)C)cc1 [화합물 17e, 1-t-뷰틸-4-(4-메톡시벤질)아미노-6-(메틸티오)피라졸로[3,4-d]피리미딘] | 21 ± 27%
6 | C=CCNc1nc(SC)nc2c1cnn2C(C)(C)C [화합물 17f, 1-t-뷰틸-4-알릴아미노-6-(메틸티오)피라졸로[3,4-d]피리미딘] | 89 ± 8%
7 | CSc1nc(NCCc2ccccc2)c2cnn(C(C)(C)C)c2n1 [화합물 17h, 1-t-뷰틸-4-(2-페닐에틸)아미노-6-(메틸티오)피라졸로[3,4-d]피리미딘] | 61 ± 1%
8 | COc1ccccc1CNc1nc(SC)nc2c1cnn2C(C)(C)C [화합물 17i, N-(2-메톡시벤질)-1-t-뷰틸-6-(methylthio)-1H-피라졸로[3,4-d]피리미딘-4-아민] | 45 ± 5.9%
9 | CSc1nc(NCc2ccc(Cl)cc2)c2cnn(C(C)(C)C)c2n1 [화합물 17j, N-(4-클로로벤질)-1-t-뷰틸-6-(methylthio)-1H-피라졸로[3,4-d]피리미딘-4-아민] | 19 ± 3.9%
10 | COc1cccc(CNc2nc(SC)nc3c2cnn3C(C)(C)C)c1 [화합물 17k, N-(3-메톡시벤질)-1-t-뷰틸-6-(methylthio)-1H-피라졸로[3,4-d]피리미딘-4-아민] | 51 ± 5%
11 | CCCCNc1nc(SC)nc2c1cnn2C(C)(C)C [화합물 17l, 1-t-뷰틸-N-뷰틸-6-(메틸티오)-1H-피라졸로[3,4-d]피리미딘-4-아민] | 82 ± 9.5%
12 | CSc1nc(NCc2ccccn2)c2cnn(C(C)(C)C)c2n1 [화합물 17m, 1-t-뷰틸-6-(메틸티오)-N-((피리딘-2-일)메틸)-1H-피라졸로[3,4-d]피리미딘-4-아민] | 92 ± 6.6%
13 | CSc1nc(NCc2ccccc2Cl)c2cnn(C(C)(C)C)c2n1 [화합물 17n, N-(2-클로로벤질)-1-t-뷰틸-6-(메틸티오)-1H-피라졸로[3,4-d]피리미딘-4-아민] | 38 ± 2.9%
14 | CSc1nc(NC(C)(C)CO)c2cnn(C(C)(C)C)c2n1 [화합물 17o, 2-(1-t-뷰틸-6-(메틸티오)-1H-피라졸로[3,4-d]피리미딘-4-일아미노)-2-메틸프로판-1-올] | 73.6 ± 2.4%
15 | COc1cccc(CCn2ncc3c(NCc4ccccc4Cl)nc(SC)nc32)c1 [화합물 18a, N-(2-클로로벤질)-1-(3-메톡시펜에틸)-6-(메틸티오)-1H-피라졸로[3,4-d]피리미딘-4-아민] | 43 ± 18.1%
16 | COc1cccc(CCn2ncc3c(NCc4ccccc4OC)nc(SC)nc32)c1 [화합물 18b, N-(2-메톡시벤질)-1-(3-메톡시펜에틸)-6-(메틸티오)-1H-피라졸로[3,4-d]피리미딘-4-아민] | 37 ± 17.6%
17 | COc1cccc(CCn2ncc3c(NCc4ccccc4C)nc(SC)nc32)c1 [화합물 18c, N-(2-메틸벤질)-1-(3-메톡시펜에틸)-6-(메틸티오)-1H-피라졸로[3,4-d]피리미딘-4-아민] | 37 ± 7.9%
18 | COc1cccc(CCn2ncc3c(NCc4cccc(OC)c4)nc(SC)nc32)c1 [화합물 18d, N-(3-메톡시벤질)-1-(3-메톡시펜에틸)-6-(메틸티오)-1H-피라졸로[3,4-d]피리미딘-4-아민] | 39 ± 4.8%
19 | COc1ccc(CNc2nc(SC)nc3c2cnn3CCc2cccc(OC)c2)cc1 [화합물 18e, 1-(3-메톡시펜에틸)-N-(4-메톡시벤질)-6-(메틸티오)-1H-피라졸로[3,4-d]피리미딘-4-아민] | 44 ± 1.3%
20 | COc1cccc(CCn2ncc3c(NCc4ccc(C)cc4)nc(SC)nc32)c1 [화합물 18f, 1-(3-메톡시펜에틸)-N-(4-메틸벤질)-6-(메틸티오)-1H-피라졸로[3,4-d]피리미딘-4-아민] | 56 ± 3.1%
21 | COc1cccc(CCn2ncc3c(NCc4ccc(F)cc4)nc(SC)nc32)c1 [화합물 18g, 1-(3-메톡시펜에틸)-N-(4-플루오로벤질)-6-(메틸티오)-1H-피라졸로[3,4-d]피리미딘-4-아민] | 58 ± 4.8%
22 | COc1cccc(CCn2ncc3c(NCc4ccccc4)nc(SC)nc32)c1 [화합물 18h, 1-(3-메톡시펜에틸)-N-벤질-6-(메틸티오)-1H-피라졸로[3,4-d]피리미딘-4-아민] | 56 ± 3.1%
23 | C=CCNc1nc(SC)nc2c1cnn2CCc1cccc(OC)c1 [화합물 18i, 1-(3-메톡시펜에틸)-N-알릴-6-(메틸티오)-1H-피라졸로[3,4-d]피리미딘-4-아민] | 78 ± 4.4%
24 | COc1cccc(CNc2nc(SC)nc3c2cnn3CCc2ccccc2OC)c1 [화합물 19a, 1-(2-메톡시펜에틸)-N-(3-메톡시벤질)-6-(메틸티오)-1H-피라졸로[3,4-d]피리미딘-4-아민] | 32 ± 1.1%
25 | COc1ccc(CNc2nc(SC)nc3c2cnn3CCc2ccccc2OC)cc1 [화합물 19b, 1-(2-메톡시펜에틸)-N-(4-메톡시벤질)-6-(메틸티오)-1H-피라졸로[3,4-d]피리미딘-4-아민] | 27 ± 6.8%
26 | COc1ccccc1CCn1ncc2c(NCc3ccc(F)cc3)nc(SC)nc21 [화합물 19d, 1-(2-메톡시펜에틸)-N-(4-플루오로벤질)-6-(메틸티오)-1H-피라졸로[3,4-d]피리미딘-4-아민] | 40 ± 1.1%
27 | COc1ccccc1CCn1ncc2c(NCc3ccccc3)nc(SC)nc21 [화합물 19e, 1-(2-메톡시펜에틸)-N-벤질-6-(메틸티오)-1H-피라졸로[3,4-d]피리미딘-4-아민] | 60 ± 5.9%
28 | C=CCNc1nc(SC)nc2c1cnn2CCc1ccccc1OC [화합물 19f, 1-(2-메톡시펜에틸)-N-알릴-6-(메틸티오)-1H-피라졸로[3,4-d]피리미딘-4-아민] | 75 ± 8.7%

Row | SMILES | activity at 20 µM
29 | COc1ccccc1CCn1ncc2c(NCc3ccccc3C)nc(SC)nc21 [화합물 19g, N-(2-메톡시벤질)-1-(2-메톡시펜에틸)-6-(메틸티오)-1H-피라졸로[3,4-d]피리미딘-4-아민] | 27.4 ± 0.7%
30 | COc1ccccc1CCn1ncc2c(NCc3ccccc3Cl)nc(SC)nc21 [화합물 19h, N-(2-클로로벤질)-1-(2-메톡시펜에틸)-6-(메틸티오)-1H-피라졸로[3,4-d]피리미딘-4-아민] | 18 ± 1.2%
31 | COc1ccccc1CCn1ncc2c(NCc3ccccc3OC)nc(SC)nc21 [화합물 19i, N-(2-메톡시벤질)-1-(2-메톡시펜에틸)-6-(메틸티오)-1H-피라졸로[3,4-d]피리미딘-4-아민] | 23.1 ± 0.5%
32 | CSc1nc(NCc2ccccc2Cl)c2cnn(-c3ccc(F)cc3)c2n1 [화합물 20a, N-(2-클로로벤질)-1-(4-플루오로페닐)-6-(메틸티오)-1H-피라졸로[3,4-d]피리미딘-4-아민] | 48 ± 17.2%
33 | COc1ccccc1CNc1nc(SC)nc2c1cnn2-c1ccc(F)cc1 [화합물 20b, N-(2-메톡시벤질)-1-(4-플루오로페닐)-6-(메틸티오)-1H-피라졸로[3,4-d]피리미딘-4-아민] | 48 ± 27.1%
34 | CSc1nc(NCc2ccccc2C)c2cnn(-c3ccc(F)cc3)c2n1 [화합물 20c, N-(2-메틸벤질)-1-(4-프루오로페닐)-6-(메틸티오)-1H-피라졸로[3,4-d]피리미딘-4-아민] | 47 ± 8%
35 | COc1cccc(CNc2nc(SC)nc3c2cnn3-c2ccc(F)cc2)c1 [화합물 20d, N-(3-메톡시벤질)-1-(4-플루오로페닐)-6-(메틸티오)-1H-피라졸로[3,4-d]피리미딘-4-아민] | 43 ± 5.9%
36 | COc1ccc(CNc2nc(SC)nc3c2cnn3-c2ccc(F)cc2)cc1 [화합물 20e, N-(4-메톡시벤질)-1-(4-플루오로페닐)-6-(메틸티오)-1H-피라졸로[3,4-d]피리미딘-4-아민] | 235%
37 | CSc1nc(NCc2ccc(C)cc2)c2cnn(-c3ccc(F)cc3)c2n1 [화합물 20f, N-(4-메틸벤질)-1-(4-프루오로페닐)-6-(메틸티오)-1H-피라졸로[3,4-d]피리미딘-4-아민] | 62 ± 3.8%
38 | CSc1nc(NCc2ccccc2Cl)c2cnn(-c3ccc(C)cc3)c2n1 [화합물 21a, N-(2-클로로벤질)-6-(메틸티오)-1-p-톨릴-1H-피라졸로[3,4-d]피리미딘-4-아민] | 37 ± 10.7%
39 | COc1ccccc1CNc1nc(SC)nc2c1cnn2-c1ccc(C)cc1 [화합물 21b, N-(2-메톡시벤질)-6-(메틸티오)-1-p-톨릴-1H-피라졸로[3,4-d]피리미딘-4-아민] | 44 ± 25.2%
40 | CSc1nc(NCc2ccccc2C)c2cnn(-c3ccc(C)cc3)c2n1 [화합물 21c, N-(2-메틸벤질)-6-(메틸티오)-1-p-톨릴-1H-피라졸로[3,4-d]피리미딘-4-아민] | 47 ± 6.8%
41 | COc1cccc(CNc2nc(SC)nc3c2cnn3-c2ccc(C)cc2)c1 [화합물 21d, N-(3-메톡시벤질)-6-(메틸티오)-1-p-톨릴-1H-피라졸로[3,4-d]피리미딘-4-아민] | 42 ± 5.2%
42 | COc1ccc(CNc2nc(SC)nc3c2cnn3-c2ccc(C)cc2)cc1 [화합물 21e, N-(4-메톡시벤질)-6-(메틸티오)-1-p-톨릴-1H-피라졸로[3,4-d]피리미딘-4-아민] | 39 ± 3%
43 | CSc1nc(NCc2ccc(C)cc2)c2cnn(-c3ccc(C)cc3)c2n1 [화합물 21f, N-(4-메틸벤질)-6-(메틸티오)-1-p-톨릴-1H-피라졸로[3,4-d]피리미딘-4-아민] | 49 ± 5.9%
44 | CSc1nc(NC(c2ccccc2)c2ccc(Cl)cc2)c2cnn(-c3ccc(C)cc3)c2n1 (stereo not shown) [화합물 21g, N-((4-클로로페닐)(페닐)메틸)-6-(메틸티오)-1-p-톨릴-1H-피라졸로[3,4-d]피리미딘-4-아민] | 79 ± 1.8%
45 | CSc1nc(NC(C)C2CCCCC2)c2cnn(-c3ccc(C)cc3)c2n1 (stereo not shown) [화합물 21h, N-(1-사이클로헥실에틸)-6-(메틸티오)-1-p-톨릴-1H-피라졸로[3,4-d]피리미딘-4-아민] | 73 ± 2.6%
46 | CSc1nc(NC(C)c2ccc(C)cc2)c2cnn(-c3ccc(C)cc3)c2n1 (stereo not shown) [화합물 21i, 6-(메틸티오)-1-p-톨릴-N-(1-p-톨릴에틸)-1H-피라졸로[3,4-d]피리미딘-4-아민] | 57 ± 1%
47 | COc1ccc([C@H](C)Nc2nc(SC)nc3c2cnn3-c2ccc(C)cc2)cc1 [화합물 21j, N-((S)-1-(4-메톡시페닐)에틸)-6-(메틸티오)-1-p-톨릴-1H-피라졸로[3,4-d]피리미딘-4-아민] | 52 ± 1.7%
48 | C[S+]([O-])c1nc(NCc2ccccc2Cl)c2cnn(-c3ccccc3)c2n1 (stereo not shown) [화합물 22a, N-(2-클로로벤질)-6-(메틸설파이닐)-1-페닐-1H-피라졸로[3,4-d]피리미딘-4-아민] | 24 ± 12.9%
49 | COc1ccccc1CNc1nc([S+](C)[O-])nc2c1cnn2-c1ccccc1 (stereo not shown) [화합물 22b, N-(2-메톡시벤질)-6-(메틸설파이닐)-1-페닐-1H-피라졸로[3,4-d]피리미딘-4-아민] | 28 ± 4.1%
50 | CCCCNc1nc([S+](C)[O-])nc2c1cnn2-c1ccccc1 (stereo not shown) [화합물 22d, N-뷰틸-6-(메틸설파이닐)-1-페닐-1H-피라졸로[3,4-d]피리미딘-4-아민] | 46 ± 8.3%
51 | COc1ccccc1CNc1nc([S+](C)[O-])nc2c1cnn2-c1ccc(F)cc1 (stereo not shown) [화합물 22e, N-(2-메톡시벤질)-1-(4-플루오로페닐)-6-(메틸설파이닐)-1-페닐-1H-피라졸로[3,4-d]피리미딘-4-아민] | 31 ± 6.9%
52 | COc1ccccc1CNc1nc([S+](C)[O-])nc2c1cnn2-c1ccc(C)cc1 (stereo not shown) [화합물 22g, N-(2-메톡시벤질)-6-(메틸설파이닐)-1-p-톨릴-1H-피라졸로[3,4-d]피리미딘-4-아민] | 42 ± 2.3%

Reference: patent KR20130112248A, “피라졸로피리미딘 유도체 화합물, 이를 포함하는 산화질소 생성 억제용 조성물 및 뇌신경 질환 예방 및 치료용 약학적 조성물” (한국과학기술연구원, priority 2012, dated 2013)
